Experimental data published in US5480645A, “Hydroxyamines N-acyl derivatives having scavenger activity and useful in acute and chronic pathologies associated with peroxidation and inflammation phenomena” (LifeGroup S.p.A., priority 1992, dated 1996).
Where two headings read alike, the source gives them in different places. Where no end group is shown, it is not given here.

Assays:
[1] = tested on: rat liver microsomes (membrane phospholipid peroxidation); assay: Antiperoxidative activity on rat liver microsomes, NADPH/Fe+2/ADP induced peroxidation (MDA formation); format: biochemical
Protocol: Before the final resuspension mitochondria ape washed with 0.125M KCl containing 15 mM Hepes/10 mM tris at pH=7.4. Rat liver microsomes are prepared as described by Ernster and Nordenbrand (Ernster, Nordenbrand K. Methods Enzymol. 1967, 10:574-80). […]
b) 20 mM Hepes-Tris buffer pH=7.4, 0.5 mM cumene hydroperoxide in the presence or in the absence of the compounds to be tested. The trials after incubation are interrupted with 1 ml 35% TCA which 30 mg BHT and 1 ml 1% TBA (thiobarbituric acid) have been added to. Subsequently the incubation is carried out for 15' at 90° C. in order to allow the development of the coloured adduct.
(§1) A common oxidation product, malonyldialdehyde (MDA), to the two oxidant systems described in (a) and in (b), is measured.
The formed MDA is evaluated by spectrophotometry at 532 nm and calculated by using a molar extinction coefficient of 156.000 (Buege J. A. and Aust S. D., Methods Enzymol., 52, 302-310, 1978).
The tested compounds are solubilized in the culture medium up to the desired concentrations (see tables 1-3). […]
The antiperoxidase activity is measured as % of inhibition of malonyldialdehyde formation.

[2] = tested on: rat liver microsomes (membrane phospholipid peroxidation); assay: Antiperoxidative activity on rat liver microsomes, cumene hydroperoxide induced peroxidation (MDA formation); format: biochemical; details: 0.5 mM cumene hydroperoxyde, Table 3; for MDA: control 12.8
Protocol: b) 20 mM Hepes-Tris buffer pH=7.4, 0.5 mM cumene hydroperoxide in the presence or in the absence of the compounds to be tested. […] Subsequently the incubation is carried out for 15' at 90° C. in order to allow the development of the coloured adduct.
as §1
The tested compounds are solubilized in the culture medium up to the desired concentrations (see tables 1-3).
As peroxidant agent 0.5 mM cumene hydroperoxyde is used. As oxidation index the formation of malonyldialdehyde (MDA) is measured (nmoles/mg protein).

[3] = tested on: granular cerebellar cells; assay: Protection against 2 mM glutamate cytotoxicity in immature granular cerebellar cell cultures
C6 glioma cells = assay: Protection against 5 mM glutamate cytotoxicity in glioma C6 cultures
mast cells = assay: In vivo antidegranulating activity in rat mast cells (substance P induced); design: species or system Sprague Dawley rats
Protocol: 1. In vivo antidegranulating activity in rat mast cells.
The pharmacological treatment is preceded (20 min. before) by the degranulating stimulus induced by P substance (10^-6 M) injected in the auricular pinna. After 20 minutes from the degranulating stimulus, the animals are sacrificed. Their tissues are then taken (auricular pavilion) for the morphological aspect analysis of the mast cells residing in the connective tissues after fixation and coloration with toluidine blue.
The inhibition level of the mast cells degranulation in the animal tissue treated with the tested compounds in comparison with the animals treated only with the degranulating agent is considered as the parameter of the biological activity.
*the inhibition percentage is calculated considering that the effect of
the substance P is maximum (100% of mast cells degranulation).

Solubility = format: physicochemical; details: for solubility: organic solvent or mixture, read-out: solubility in org. solv.
[4] = tested on: rat cerebellar granular cells; assay: Protection against glutamate neurotoxicity in rat cerebellar granular cell cultures; format: cell-based; details: glutamate alone, 50 μM; Table 4; control 100; 1440 min
Protocol: Primary cerebellar granular cell cultures are prepared from 8 days old Sprague-Dawly rats. Neurons are grown on 35 mm plates for 7-8 days. […] Glial cells proliferation is prevented by cytosine arabinose-furanoside.
Cells are washed in Locke solution free from Mg^2+ then replated in the conditionned culture medium.
The solution is diluted serially up to 10, 20 and 50 μM. The compounds at the desired concentrations are added to the cells at 37 ° C.; after 15' 50 μM glutamate free from Mg^2+ is added For 15 minutes at 22 ° C.
The cells are then washed 3 times with Locke solution, then added to the original culture medium and maintained at 37 ° C. in 5 % CO2 for 24 hours.
The cellular survival is measured by using a fluorescence microscope.

[5] = 10 μM, NADPH/Fe+2/ATP, Table 1-A
[6] = 10 μM, NADPH/Fe+2/ATP, Table 1-A, control 42.5
[7] = 20 μM, NADPH/Fe+2/ATP, Table 1-A
[8] = 20 μM, NADPH/Fe+2/ATP, Table 1-A, control 42.5
[9] = Mus musculus, 24 h, read-out: % Cellular survival
[10] = Rattus norvegicus, C6 glioma, 24 h, read-out: % Cell survival
[11] = 40 μM, preincubation time 0 minutes, ADP/NADPH/Fe, Table 2
[12] = 40 μM, preincubation time 15 minutes, ADP/NADPH/Fe, Table 2
[13] = 40 μM, preincubation time 30 minutes, ADP/NADPH/Fe, Table 2
[14] = 40 μM, preincubation time 45 minutes, ADP/NADPH/Fe, Table 2
[15] = 40 μM, preincubation time 60 minutes, ADP/NADPH/Fe, Table 2

## Cc1c(C)c2c(c(C)c1O)CC(CC(=O)O)O2 (centres unmarked) [5-hydroxy-4,6,7-trimethyl-2,3-dihydrobenzofuran-2-acetic acid, reference compound]
[1]; [5]
  peroxidation inhibition: 0%
[1]; [6]
  MDA: 44.19 nmoles/mg prot.
[1]; [7]
  peroxidation inhibition: 12%
[1]; [8]
  MDA: 37.3 nmoles/mg prot.
[2]; 20 μM
  peroxidation inhibition: 28%
  MDA: 9.25 nmoles/mg prot.
[2]; 50 μM
  peroxidation inhibition: 42%
  MDA: 7.5 nmoles/mg prot.

## Cc1c(C)c2c(c(C)c1O)CCC(C)(C(=O)O)O2 (centres unmarked) [6-hydroxy-2,5,7,8-tetramethylchroman-2-carboxylic acid, reference compound]
[3]; [9]
  viability at 10 µM: 43%
  viability at 50 µM: 54%
  viability at 100 µM: 84%
C6 glioma cells; [10]
  viability at 10 µM: 7%
  viability at 30 µM: 37%
  viability at 100 µM: 94%

## Cc1c(C)c2c(c(C)c1OC(=O)CCC(=O)NCCO)CCC(C)(CCCC(C)CCCC(C)CCCC(C)C)O2 [Example 2, D-α-tocopherol acid succinate 2-hydroxyethylamide]
Mast cells; s.c. 20 mg/kg, substance P 10^-6 M in auricular pinna, substance P effect taken as 100% degranulation
  inhibition % (mast cells degranulation induced by substance P): 38.5%
C6 glioma cells; [10]
  viability at 10 µM: 10%
  viability at 30 µM: 80%
Solubility; in ethanol and chloroform
  solubility: > 10000 µg/mL
Solubility
  water solubility: slightly soluble
[1]; [11]
  peroxidation inhibition: 1.40%
[1]; [12]
  peroxidation inhibition: 17.30%
[1]; [13]
  peroxidation inhibition: 29.50%
[1]; [14]
  peroxidation inhibition: 37.90%
[1]; [15]
  peroxidation inhibition: 40.90%

## CC(=O)OCCNC(=O)C1(C)CCc2c(C)c(OC(C)=O)c(C)c(C)c2O1 (centres unmarked) [Example 3, 6-acetoxy-2,5,7,8-tetramethyl-chroman-2-(2-acetoxyethyl)-carboxyamide]
[3]; [9]
  viability at 1 µM: 49%
  viability at 10 µM: 60%
  viability at 30 µM: 77%
C6 glioma cells; [10]
  viability at 1 µM: 17%
  viability at 3 µM: 40%
  viability at 10 µM: 82%
Solubility; in ethanol
  solubility: > 10000 µg/mL
Solubility
  water solubility: slightly soluble
[1]; 2.5 μM, Table 1-B, third series
  peroxidation inhibition: 23.1%
[1]; 2.5 μM, Table 1-B, third series (control 37.4)
  MDA: 28.8 nmoles/mg/protein
[1]; 5 μM, Table 1-B, third series
  peroxidation inhibition: 41.6%
[1]; 5 μM, Table 1-B, third series (control 37.4)
  MDA: 21.8 nmoles/mg/protein
[1]; 10 μM, Table 1-B, third series
  peroxidation inhibition: 53.8%
[1]; 10 μM, Table 1-B, third series (control 37.4)
  MDA: 17.2 nmoles/mg/protein
[1]; 20 μM, Table 1-B, third series
  peroxidation inhibition: 62.1%
[1]; 20 μM, Table 1-B, third series (control 37.4)
  MDA: 14.1 nmoles/mg/protein

## Cc1c(C)c2c(c(C)c1O)CCC(C)(C(=O)NCCCO)O2 (centres unmarked) [Example 4, N-(6-hydroxy-2,5,7,8-tetramethylchroman-2-carboxyl)-propanolamine]
[3]; [9]
  viability at 1 µM: 39%
  viability at 3 µM: 60%
  viability at 10 µM: 77%
C6 glioma cells; [10]
  viability at 1 µM: 10%
  viability at 3 µM: 94%
  viability at 10 µM: 90%
Solubility; in ethanol, DMSO, chloroform
  solubility: > 10000 µg/mL
Solubility
  water solubility: slightly soluble
[1]; 10 μM, Table 1-B, first series
  peroxidation inhibition: 37%
[1]; 10 μM, Table 1-B, first series (control 46.27)
  MDA: 28.96 nmoles/mg/protein
[1]; 20 μM, Table 1-B, first series
  peroxidation inhibition: 95.5%
[1]; 20 μM, Table 1-B, first series (control 46.27)
  MDA: 1.61 nmoles/mg/protein
[1]; 40 μM, Table 1-B, first series
  peroxidation inhibition: 97.7%
[1]; 40 μM, Table 1-B, first series (control 46.27)
  MDA: 1.07 nmoles/mg/protein
[1]; 60 μM, Table 1-B, first series
  peroxidation inhibition: 97.7%
[1]; 60 μM, Table 1-B, first series (control 46.27)
  MDA: 1.04 nmoles/mg/protein
[1]; 80 μM, Table 1-B, first series
  peroxidation inhibition: 97.7%
[1]; 80 μM, Table 1-B, first series (control 46.27)
  MDA: 1.07 nmoles/mg/protein
[1]; 100 μM, Table 1-B, first series
  peroxidation inhibition: 99.3%
[1]; 100 μM, Table 1-B, first series (control 46.27)
  MDA: 0.30 nmoles/mg/protein

## Cc1c(C)c2c(c(C)c1O)CC(CC(=O)NCCCO)O2 (centres unmarked) [Example 5, N-[2-(2,3-dihydro-5-hydroxy-4,6,7-trimethylbenzofuran)-acetyl]-propanolamine]
[3]; [9]
  viability at 1 µM: 52%
  viability at 10 µM: 83%
  viability at 30 µM: 86%
C6 glioma cells; [10]
  viability at 1 µM: 8%
  viability at 3 µM: 66%
  viability at 10 µM: 91%
Solubility; in ethanol, DMSO, chloroform
  solubility: > 10000 µg/mL
Solubility
  water solubility: slightly soluble
[1]; 10 μM, Table 1-B, second series
  peroxidation inhibition: 24.0 ± 1.0%
[1]; 10 μM, Table 1-B, second series (control 42.50 ± 2.4)
  MDA: 32.32 ± 0.4 nmoles/mg/protein
[1]; 20 μM, Table 1-B, second series
  peroxidation inhibition: 58.0 ± 7.0%
[1]; 20 μM, Table 1-B, second series (control 42.50 ± 2.4)
  MDA: 17.87 ± 2.9 nmoles/mg/protein
[1]; 40 μM, Table 1-B, second series
  peroxidation inhibition: 94.0 ± 3.0%
[1]; 40 μM, Table 1-B, second series (control 42.50 ± 2.4)
  MDA: 2.57 ± 1.3 nmoles/mg/protein
[1]; 60 μM, Table 1-B, second series
  peroxidation inhibition: 95.0 ± 3.0%
[1]; 60 μM, Table 1-B, second series (control 42.50 ± 2.4)
  MDA: 2.10 ± 1.2 nmoles/mg/protein
[1]; 80 μM, Table 1-B, second series
  peroxidation inhibition: 94.0 ± 3.0%
[1]; 80 μM, Table 1-B, second series (control 42.50 ± 2.4)
  MDA: 2.54 ± 1.3 nmoles/mg/protein

## N[C@@H](CCC(=O)O)C(=O)O [Glutamate, reference compound]
[3]; 2 mM glutamate for 24 hours, immature granular cerebellar cells
  cell death: 60+70%
[3]; glutamate alone, 2 mM, 24 hours, Table 6
  % Cellular survival: 30%
C6 glioma cells; 5 mM glutamate for 24 hours
  cellular degeneration: 90%
C6 glioma cells; glutamate alone, 5 mM, 24 hours, Table 5
  % Cell survival: 7%
[4]
  cell survival: 3%

## CC(=O)Oc1c(C)c(C)c2c(c1C)CCC(C)(CCC[C@H](C)CCC[C@H](C)CCCC(C)C)O2 (some centres unmarked) [Vit. E acetate, reference compound]
[1]; [5]
  peroxidation inhibition: 0%
[1]; [6]
  MDA: 51.08 nmoles/mg prot.
[1]; [7]
  peroxidation inhibition: 0%
[1]; [8]
  MDA: 49.34 nmoles/mg prot.
[1]; [11]
  peroxidation inhibition: 1.90%
[1]; [12]
  peroxidation inhibition: 18.20%
[1]; [13]
  peroxidation inhibition: 28.95%
[1]; [14]
  peroxidation inhibition: 35.80%
[1]; [15]
  peroxidation inhibition: 40.35%
[1]; in vitro, 10 to 50 μM dose/effect relationship for the test compound
  inhibition of the peroxidation induced by NADPH/Fe+2/ADP (in words): inactive in the in-vitro systems
[2]; 20 μM
  peroxidation inhibition: 0%
  MDA: 14.29 nmoles/mg prot.
[2]; 50 μM
  peroxidation inhibition: 0%
  MDA: 11.57 nmoles/mg prot.

## substance P: degranulating stimulus injected in the auricular pinna (RPKPQQFFGLM; ends and bridges not checked; UniProt P20366 58-68, looked up) [reference compound]
Mast cells; induced by substance P, of the numbered mast cells
  mast cells degranulation: 85-95%
